Test results published in patent US20060074066A1, “Use of an inhibitor of cathepsin-S or -B to treat or prevent chronic obstructive pulmonary disease” (Yale University, priority 2003, published 2006).
“Also recorded” adds a separate entry of the source. Peptide text beside a SMILES is read from it. * marks the point of attachment. Cbz = O=C(OCc1ccccc1)*; CH2F = FC*

Assays:
Type in all cases: in vivo
CC10-rtTA-IFN-γ mice [1] = assay: IFN-γ-induced BAL cell recovery and tissue inflammation; conditions: transgene (+) mice on dox for 2 weeks
Method: Mice were euthanized, the trachea was isolated by blunt dissection, and tubing was secured in the airway. Two volumes of 1 mL of PBS with 0.1% BSA were then instilled and gently aspirated and pooled. Each BAL fluid sample was centriged, and the supernatants were stored in −70° C. until used. The levels of IFN-γ were determined using a commercial ELISA (R&D Systems Inc., Minneapolis, Minn., USA) as per the manufacturer's instructions.
(§1) Animals were sacrificed via cervical dislocation, a median stemotomy was performed, and right heart perfusion was accomplished with calcium- and magnesium-free PBS to clear the pulmonary intravascular space. The lungs were then fixed to pressure (25 cm) with neutral buffered 10% formalin, fixed overnight in 10% formalin, embedded in paraffm, sectioned at 5 μm and stained. Hematoxylin and eosin (H&E) stains were performed in the Research Histology Laboratory of the Department of Pathology at Yale University School of Medicine.

CC10-rtTA-IFN-γ mice [2] = assay: IFN-γ-induced emphysema (lung volume, chord length, alveolar histology, compliance) in transgenic mice; conditions: transgene (+) mice on dox, treated vs vehicle control
Excerpt: (§2) CC10-rtTA-IFN-γ mice that had been generated in our laboratory and bred for at least 10 generations onto a Balb/c background were used in these studies. These are dual transgene positive animals in which the reverse tetracycline transactivator (rtTA) drives the expression of the murine IFN-γ gene in a lung-specific and externally regulatable fashion. The transgene in these mice is activated by adding doxycycline (dox) to the animal's drinking water. These mice were maintained as dual transgene (+) heterozygotes (refered to as transgene (+) hereafter).
(§3) CC10-rtTA-IFN-γ mice and littermate controls were maintained on normal water until they were 4-6 weeks old.
as §1
In brief, the trachea was cannulated, the lungs were degassed and the lungs and heart were removed en bloc and inflated with PBS at 25 cm of pressure. The size of the lung was evaluated via volume displacement. Compliance was calculated as the change in volume divided by the change in pressure.

[3] = tested on: cathepsins B, S, and H and MMPs-2, 9, 12 and 14; assay: Lung mRNA encoding cathepsins and MMPs (RT-PCR, real-time RT-PCR); conditions: transgene (+) mice on dox for 2 weeks
IFN-γ-induced apoptosis = assay: TUNEL evaluation of IFN-γ-induced lung cell apoptosis in transgenic mice; conditions: transgene (+) mice on dox; for effect on IFN-γ-induced apoptosis (in words): treated vs vehicle control, 14150 10 mg/kg/day by gavage, CA074 10 mg/Kg/day I.P., leupeptin 15 mg/kg I.P.
Excerpt: as §2, §3
End labeling of exposed 3′-OH ends of DNA fragments in paraffin embedded tissue was undertaken with the TUNEL in situ cell death detection kit AP (Roche Diagnostics, CA, USA) using the instructions provided by the manufacturer. After staining, 20 fields of alveoli were randomly chosen and 2000 nuclei were counted. The labeled cells were expressed as percentage of total nuclei.

Structure (SMILES): COC(=O)C[C@H](NC(=O)[C@H](C)NC(=O)[C@@H](NC(=O)OCc1ccccc1)C(C)C)C(=O)CF [Z-VAD-fmk] (Cbz-Val-Ala-Asp(OMe)-CH2F)
- IFN-γ-induced BAL total cell, neutrophil, lymphocyte and macrophage alterations and tissue inflammation (CC10-rtTA-IFN-γ mice [1]): markedly ameliorated
- effect on IFN-γ-induced emphysema (lung volume, chord length, histology, compliance; in words) (CC10-rtTA-IFN-γ mice [2]): decreased the emphysema generating effects of IFN-γ; also recorded: only partially abrogated
- IFN-γ-induced increase in mRNA encoding cathepsin B, cathepsin S and MMPs-2 and -14 [3]: markedly ameliorated
- levels of mRNA encoding cathepsin H and MMPs-9 and -12 [3]: not similarly altered
- decrease of the levels of IFN-γ-induced apoptosis (IFN-γ-induced apoptosis; Z-VAD-fmk 3 μg/kg/day I.P. vs vehicle control): ≥ 85%

Structure (SMILES): CCCNC(=O)[C@H]1O[C@@H]1C(=O)N[C@H](C(=O)N1CCC[C@H]1C(=O)O)[C@@H](C)CC (relative stereo) [CA074, N-(L-3-trans-propylcarbamoyl-oxirane-2-carbonyl)-L-isoleucyl-L-proline]
- effect on IFN-γ-induced emphysema (lung volume, chord length, histology, compliance; in words) (CC10-rtTA-IFN-γ mice [2]): significant decreases
- effect on IFN-γ-induced apoptosis (in words) (IFN-γ-induced apoptosis): significant decreases

Structure (SMILES): CC[C@H](NC(=O)[C@H](CS(=O)(=O)CC(C)C)NC(=O)N1CCOCC1)C(=O)c1nc2ccccc2o1 [compound 14150]
- effect on IFN-γ-induced emphysema (lung volume, chord length, histology, compliance; in words) (CC10-rtTA-IFN-γ mice [2]): significant decreases; also recorded: significantly inhibited
- effect on IFN-γ-induced apoptosis (in words) (IFN-γ-induced apoptosis): significant decreases; also recorded: significantly inhibited

Structure (SMILES): CC(=O)N[C@@H](CC(C)C)C(=O)N[C@@H](CC(C)C)C(=O)N[C@H](C=O)CCCNC(=N)N [leupeptin]
- IFN-γ-induced increase in mRNA encoding cathepsin B, cathepsin S and MMPs-2 and -14 [3]: decreased
- MMP-9 mRNA induction by IFN-γ [3]: leupeptin-dependent
